Where “and” joins values, the source holds several entries; their conditions need not be identical. Equal values may be shown once. Entries after “also recorded” stand apart in the source; their conditions may differ.
Columns and labels:
human thrombi = test: Ex vivo blood flow model: binding to human thrombi, incl. competition with cold compound; conditions: ± SEM; for in vitro clot-to-blood ratio / Accumulation Thrombus: 3 minutes post-injection of 18F-labeled compound; for Accumulation Thrombus: without cold compound; for Thrombus competition: cold compound added with hot compound, final plasma concentration 2.8 μM, 3 minutes
Excerpt: The binding of compounds to thrombi was further investigated in an ex vivo blood flow model similar to that described in “Wakhloo, A. K. et al. Thrombus and stroke 2008, in vitro models 57-66” but modified with regard to thrombus development. Briefly, an open handmade tube-set consisting of tygon-tubes (Tygon R-1000, part N^O AAU00007: I.D. 3.2 mm, O.D. 6.4 mm, Saint Gobain Performance Plastics North America), intermediate tubes (Intrafix® Infusion set, B. Braun, Melsungen, Germany) an open reservoir (10 mL Combitip, Eppendorf) and a chamber made of a piece of polyethylene-Tube, ([…] Polyethylene Tubing, Clay Adams, PE160, length: 6.5 cm) containing a loop of a roughened thread (fishing line: Okuma UltraMax whitefish, diameter: 0.14 mm, length: 5 cm; sandpaper: CAMI Grit designation: 600, CP918a, VSM) was used for thrombus formation. The connection between the intermediate tube and the thrombus chamber was made by trimmed tips (epTIPS, 200 μL, Eppendorff, Hamburg/Germany). The Reservoir and the thrombus chamber were fixed by clamps and stands. A peristaltic-pump (Minipuls 3, Gilson, Middelton/USA) was used to pump the blood around thereby adjusting the flow in the middle of the thrombus chamber to 70-90 cm per second, which was monitored by ultrasound Doppler measurement (Vevo 770 High-Resolution In Vivo Micro-Imaging System, VisualSonics, TorontoOntario, Canada; Scanhead: RMV 704, 40 MHz). The volume of the entire tube-set was 7.5 or 15 mL.
For each experiment fresh blood was taken from a volunteer using 10 mL citrate-tubes (Sarstedt S-Monovette 02.1067.001, 10 mL, Citrate 3.13%) and immediately laid into the turning-device of an incubator at a temperature of 37° C. (Heraeus miniTherm CTT with integrated rotation- and turning device, turning speed: 19 rotations per minute, Heraeus Instruments GmbH, Hanau/Germany). As needed, two tubes were taken out of the turning-device and 15 mL were transferred to a 20 mL Syringe (Omnifix®, B. Braun, Melsungen/Germany) and gently mixed with 0.75 mL CaCl2-Solution before the peristaltic pump was started and the whole content of the syringe was transferred into the reservoir of the tube-set via a cell strainer (BD Falcon™ cell strain, 40 μm, BD, Franklin Lakes, N.J. USA). After 7 minutes 1 MBq or 0.5 MBq (15 mL or 7.5 mL) of the compound was added to the reservoir by means of a pipette, thereby mixing the content gently with the tip of the pipette. The blood was left circulating for another 3 minutes. Then, the pump was stopped, aliquots were taken from the blood and the thrombus together with the roughened thread was removed from the thrombus-chamber before both was weighted and measured in a gamma counter (Automatic Gamma Counter Wizard^2 3, Perkin Elmer). Then the thrombus together with the thread was incubated in Plasmin-solution (Plasmin from Human Plasma, Sigma Aldrich, stock-solution: 500 μg in 500 μL 150 μM Tris-buffer (pH 7.8), 20 μL stock-solution to 230 μL saline solution 0.9%) for 48 hours to separate the platelets from the thread and to determine the netto weight of the thrombus. Finally the activity of the compound in blood and thrombus as well as the ratio between both was determined (cpm/weight [mg]).
To verify the specificity of the compound, a competition experiment was conducted in which the cold compound was added to the reservoir together with the hot compound. The final plasma concentration of the cold compound was 2.8 μM.

[1] = Blood clearance in a cynomolgus monkey (PET and gamma counter); format: in vivo
Method: Blood kinetics of the compound described in example 40 in cynomolgus monkey. PET-imaging was performed continuously from shortly before up to 60 minutes post injection. Venous blood samples were taken at 3, 10, 30 and 60 minutes p.i. and were measured in a gamma-counter (Automatic Gamma Counter Wizard^2 3, Perkin Elmer) and expressed as cpm/mg blood. Additionally, the blood-concentration of the compound was measured from the PET-Image over the whole imaging period and expressed as % ID/g.
The blood clearance of the compound described in example 40 has been determined in a cynomolgus monkey. A female cynomolgus monkey was anesthetized with a mixture of Xylazin (Rompun®, Bayer HealthCare, Leverkusen, Germany), 0.12 mL/kg bodyweight and Ketamine (Ketavet®, Pfizer) 0.12 mL/kg bodyweight i.m. The monkey was placed inside the PET-scanner (Inveon PET/CT, Siemens Medical, Erlangen) and 25 MBq of the compound has been injected i.v. while PET-imaging was performed continuously from shortly before up to 60 minutes post injection. Venous blood samples were taken at 3, 10, 30 and 60 minutes p.i. and were measured in a gamma-counter (Automatic Gamma Counter Wizard^2 3, Perkin Elmer). Additionally, the blood-concentration of the compound was measured from the PET-Image over the whole imaging period (FIG. 4).

[2] = tested on: arterial and venous thrombi; test: Thrombus PET imaging and in vivo clot-to-blood ratio in cynomolgus monkeys; design: species or system cynomolgus monkey
Method: The ability of the compound described in example 40 for the imaging of thrombi was investigated in a PET-study with cynomolgus monkeys (female, 2.8-3.2 kg).
The first monkey was anesthetized with a mixture of Xylazin (Rompun®, Bayer HealthCare, Leverkusen, Germany), 0.12 mL/Kg and Ketamine (Ketavet®, Pfizer) 0.12 mL/Kg b.w. i.m. and additionally analgesized by an i.m. injection of 6 μg Buprenorphine per kg. While the investigation, small amounts of Ketamine have been injected i.m. if required. The left common carotid artery was exposed surgically and a polyethylene-tube ([…] Polyethylene Tubing, Clay Adams, PE50), which was roughened previously by sandpaper (600—CAMI Grit designation), was inserted into the vessel, advanced into the descending aorta and was left there for 30 minutes to allow for the development of a thrombus on the rough surface of the tube. Meanwhile, the monkey was placed inside the PET-scanner (Inveon PET/CT, Siemens Medical, Erlangen). […] The thickness of this layer was far below 1 mm (see also removed thrombus of Monkey 2, FIG. 7) and therewith also far below the resolution of the image, which is approximately 1 mm. This also means, that even slightest thrombi, even if their size is far less than the resolution of the imaging-device, can be visualized due to the massive accumulation of compound on the platelets of the thrombi. At the end of the experiment the tube was removed carefully from the vessel before it was weighted and measured in a gamma counter (Automatic Gamma Counter Wizard^2 3, Perkin Elmer). Then the thrombus together with the tube was incubated in Plasmin-solution (Plasmin from Human Plasma, Sigma Aldrich, Plasmin-stock-solution: 500 μg Plasmin in 500 μL Tris-buffer (150 μM, pH 7.8), 20 μL Plasmin-stock-solution to 230 μL saline solution 0.9%) for 48 hours to separate the platelets from the tube and to determine the netto weight of the thrombus. Finally the activity of the compound in blood and thrombus as well as the ratio between the two was determined (cpm/weight [mg]).
The experiment was repeated with the same compound in another monkey with a slightly different preparation of the thrombogenic tube: This tube was roughened at only two short sections with a gap in between. Apart from that, the experimental design including the determination of the in vivo clot-to-blood ratio was as described above for monkey 1.
The experiment was repeated with the same compound in another monkey, but with the reduced dose of 15 MBq for the whole animal. In addition to the arterial catheter, this animal also received a venous catheter, also made of PE50-catheter-tube and roughened at some parts with gaps in between as described above. […]
The in vivo clot-to-blood ratio was determined from 5 thrombi out of the above described monkey experiments. As already mentioned above the thrombi had been removed from the vessels after imaging and had been weighted and measured in a gamma-counter (Automatic Gamma Counter Wizard^2 3, Perkin Elmer) together with blood samples taken from the animal. After incubation of the thrombi in Plasmin (Plasmin from Human Plasma, Sigma Aldrich, Plasmin-stock-solution: 500 μg Plasmin in 500 μL Tris-buffer (150 μM, pH 7.8), 20 μL Plasmin-stock-solution to 230 μL saline solution 0.9%) and removal of the thrombi from the catheter tubes, the netto weight of the thrombi was calculated and the concentration of the compound in thrombus (clot) and blood, as well as the ratio between the two was calculated.

[3] = Pharmacokinetics / biodistribution in mice; format: in vivo; conditions: nude mice
Method: The biodistribution of the compound described in example 41 was determined in nude mice. Briefly, the mice received 185 KBq of the compound each. At different time points ([…], 3 mice per group) the animals were sacrificed and the organs of interest or aliquots thereof were removed, weighted and finally measured in a gamma counter (Automatic Gamma Counter Wizard^2 3, Perkin Elmer).

| SMILES | in vitro clot-to-blood ratio (human thrombi) | Accumulation Thrombus (human thrombi) | Thrombus competition (human thrombi) | blood clearance ([1]; 25 MBq i.v., up to 60 minutes p.i.) | contrast in the brain ([1]; PET) | signal in other tissue ([1]; PET) | retention within the thrombus ([2]; 60 minutes were shown) | Blood ([2]; blood sample of the animal, Cynomolgus monkey) | Clot/Blood mean (in vivo clot-to-blood ratio) ([2]; mean of 5 thrombi, sd 52) | background in surrounding tissue or organ ([2]; monkeys, PET) | accumulation in venous and arterial thrombi ([2]; monkeys, PET, 15-25 MBq i.v.) | enhancement in the vessel-wall [3] | excretion [3] | elimination from the blood ([3]; 185 KBq, 1-120 minutes p.i.) | background in the rest of the body ([3]; after 15 minutes p.i.) |
| --- | --- | --- | --- | --- | --- | --- | --- | --- | --- | --- | --- | --- | --- | --- | --- |
| O=C(O)C[C@H](NC(=O)[C@@H]1CCCN(C(=O)CCC2CCNCC2)C1)c1cncc(OCC[18F])c1 [Example 40, (3S)-3-[5-(2-[^18F]Fluoroethoxy)pyridin-3-yl]-3-[({(3R)-1-[3-(piperidin-4-yl)propanoyl]piperidin-3-yl}carbonyl)amino]propanoic acid] | 71 ± 4 (n = 3) | 202 ± 11 (n = 3) 10^3 cpm/mg | 8 ± 1 (n = 3) 10^3 cpm/mg | rapidly cleared from the blood; also recorded: rapidly eliminated from the blood | completely free of contrast | only marginal signal visible in any other tissue | almost completely remains within the thrombus | 90 cpm/mg and 130 cpm/mg and 100 cpm/mg | 126+/−52 and 126 | almost no background in any surrounding tissue or organ | surprisingly high accumulation | – | – | – | – |
| O=C(O)C[C@H](NC(=O)[C@@H]1CCCN(C(=O)CCC2CCNCC2)C1)c1cncc(-c2ccc(OCC[18F])cc2)c1 [Example 41, (3S)-3-{5-[4-(2-[^18F]Fluoroethoxy)phenyl]pyridin-3-yl}-3-[({(3R)-1-[3-(piperidin-4-yl)propanoyl]piperidin-3-yl}carbonyl)amino]propanoic acid] | 83 ± 14 (n = 6) | 44 ± 7 (n = 6) 10^3 cpm/mg | 5 ± 1 (n = 5) 10^3 cpm/mg | – | – | – | – | – | – | – | – | no enhancement in the vessel-wall | quickly excreted over the kidney and liver | rapidly eliminated from the blood | almost no background in the whole rest of the body |

— patent publication US9345793B2, “Compounds for binding to the platelet specific glycoprotein IIB/IIIA and their use for imaging of thrombi” (PIRAMAL IMAGING SA, priority 2011, dated 2016)
